In patent US8524740B2, “Synthesis and anticancer activity of aryl and heteroaryl-quinolin derivatives” (Tairx, Inc., priority 2010, dated 2013) one finds melting point data, which are given here for 13 molecules.

As a reminder, the melting point is the temperature, or range, at which the solid turns liquid. On to `COc1cc2c(cc1OCc1ccccc1)N=C(c1ccccc1F)CC2=O` [Compound 22, 7-Benzyloxy-2-(2-fluorophenyl)-6-methoxyquinolin-4-one], for which the melting point was in the range of 132 to 134 °C. `COc1cc2c(cc1OCc1ccccc1)N=C(c1cccc(F)c1)CC2=O` [Compound 23, 7-Benzyloxy-2-(3-fluorophenyl)-6-methoxyquinolin-4-one] had a melting point of 154 to 155 °C. Molecule `COc1cc2c(cc1OCc1ccccc1)N=C(c1ccc(F)cc1)CC2=O` [Compound 24, 7-Benzyloxy-2-(4-fluorophenyl)-6-methoxyquinolin-4-one] came in with a melting point of 248 to 249 °C. The result for `O=C1CC(c2ccccc2OCc2ccccc2)=Nc2ccc(N3CCCC3)cc21` [Compound 114, 2-(2-Benzyloxyphenyl)-6-pyrrolidinoquinolin-4-one] reads 293 to 295 °C. Next, `CN(C)c1ccc2c(c1)C(=O)CC(c1ccccc1OCc1ccccc1)=N2` [Compound 115, 2-(2-Benzyloxyphenyl)-6-dimethylaminoquinolin-4-one]: 210 to 212 °C; `O=C1CC(c2cccc(OCc3ccccc3)c2)=Nc2ccc(N3CCOCC3)cc21` [Compound 116, 2-(3-Benzyloxyphenyl)-6-morpholinoquinolin-4-one]: 283 to 285 °C; `O=C1CC(c2cccc(OCc3ccccc3)c2)=Nc2ccc(N3CCCC3)cc21` [Compound 117, 2-(3-Benzyloxyphenyl)-6-pyrrolidinoquinolin-4-one]: 320 to 322 °C. Next, `CN(C)c1ccc2c(c1)C(=O)CC(c1cccc(OCc3ccccc3)c1)=N2` [Compound 118, 2-(3-Benzyloxyphenyl)-6-dimethylaminoquinolin-4-one]: 307 to 308 °C; `O=C1CC(c2ccc(OCc3ccccc3)cc2)=Nc2ccc(N3CCOCC3)cc21` [Compound 119, 2-(4-Benzyloxyphenyl)-6-morpholinoquinolin-4-one]: 320 to 323 °C; `O=C1CC(c2ccc(OCc3ccccc3)cc2)=Nc2ccc(N3CCCC3)cc21` [Compound 120, 2-(4-Benzyloxyphenyl)-6-pyrrolidinoquinolin-4-one]: 330 to 332 °C. Molecule `CN(C)c1ccc2c(c1)C(=O)CC(c1ccc(OCc3ccccc3)cc1)=N2` [Compound 121, 2-(4-Benzyloxyphenyl)-6-dimethylaminoquinolin-4-one] gave a melting point of 283 to 285 °C.

In turn, `COc1cc(C2=Nc3ccc(N4CCCC4)cc3C(=O)C2)ccc1OCc1ccccc1` [Compound 123, 2-(4-(Benzyloxy)-3-methoxyphenyl)-6-pyrrolidinoquinolin-4-one] showed a melting point of 304 to 306 °C.

`COc1cc(OCc2ccccc2)cc(C2=Nc3cc4c(cc3C(=O)C2)OCO4)c1` [Compound 165, 2-(3-Benzyloxy-5-methoxyphenyl)-6,7-methylenedioxyquinolin-4-one] returned a melting point of 235 to 238 °C.
